In PubChem BioAssay AID1053167 (Broad Institute, 2014):
Several values for one entry are separate records, joined by “and”; a condition that tells them apart may be missing. Equal entries are not always repeated. Activity calls are given as the source filed them. The rule behind the calls is not given here.

Tested on: Vaccinia virus infected cells, plate reader read-out
Assay: Vaccinia orthopox stage specific inhibitors, infected cell plate reader assay, dose response confirmation (AID 1053167)
Conditions: not given

Row | SMILES | AC50
1 | C[C@@H]1CN([C@H](C)CO)S(=O)(=O)c2ccc(C#C[C@@H](C)O)cc2O[C@H]1CN(C)Cc1ccc(-c2ccccc2)cc1 | 7160 nM
2 | C[C@@H](O)C#Cc1ccc2c(c1)O[C@@H](CN(C)Cc1ccc(-c3ccc(Cl)cc3)cc1)[C@@H](C)CN([C@@H](C)CO)S2(=O)=O | 1210 nM
3 | C[C@H]1CN([C@@H](C)CO)S(=O)(=O)c2ccc(-c3ccc(O)cc3)cc2O[C@H]1CN(C)Cc1ccc(-c2ccccc2)cc1 | > 20000 nM (inactive)
4 | C[C@H](O)C#Cc1ccc2c(c1)O[C@H](CN(C)Cc1ccc(-c3ccccc3)cc1)[C@@H](C)CN([C@H](C)CO)S2(=O)=O | > 20000 nM (inactive)
5 | C[C@@H]1CN([C@@H](C)CO)S(=O)(=O)c2ccc(C#C[C@@H](C)O)cc2O[C@@H]1CN(C)Cc1ccc(-c2ccccc2)cc1 | > 20000 nM (inactive)
6 | C[C@H](O)C#Cc1ccc2c(c1)O[C@H](CN(C)Cc1ccc(-c3ccccc3)cc1)[C@H](C)CN([C@H](C)CO)S2(=O)=O | > 20000 nM (inactive)
7 | C[C@@H](O)C#Cc1ccc2c(c1)O[C@@H](CN(C)Cc1ccccc1)[C@@H](C)CN([C@@H](C)CO)S2(=O)=O | 8730 nM
8 | C[C@H](O)C#Cc1ccc2c(c1)O[C@H](CN(C)Cc1ccc(-c3ccccc3)cc1)[C@@H](C)CN([C@@H](C)CO)S2(=O)=O | 5700 nM
9 | COc1ccccc1-c1ccc(CN(C)C[C@@H]2Oc3cc(C#C[C@@H](C)O)ccc3S(=O)(=O)N([C@@H](C)CO)C[C@@H]2C)cc1 | 2140 nM
10 | Cc1ccccc1-c1ccc(CN(C)C[C@@H]2Oc3cc(C#C[C@@H](C)O)ccc3S(=O)(=O)N([C@@H](C)CO)C[C@@H]2C)cc1 | 1160 nM
11 | C[C@@H](O)C#Cc1ccc2c(c1)O[C@@H](CN(C)Cc1ccc(-c3cccc(Cl)c3)cc1)[C@@H](C)CN([C@@H](C)CO)S2(=O)=O | 2560 nM
12 | COc1ccc(-c2ccc(CN(C)C[C@@H]3Oc4cc(C#C[C@@H](C)O)ccc4S(=O)(=O)N([C@@H](C)CO)C[C@@H]3C)cc2)cc1 | 2200 nM
13 | C[C@H](O)C#Cc1ccc2c(c1)O[C@@H](CN(C)Cc1ccc(-c3ccccc3)cc1)[C@H](C)CN([C@H](C)CO)S2(=O)=O | > 20000 nM (inactive)
14 | Cc1ccc(-c2ccc(CN(C)C[C@@H]3Oc4cc(C#C[C@@H](C)O)ccc4S(=O)(=O)N([C@@H](C)CO)C[C@@H]3C)cc2)cc1 | 1480 nM
15 | C[C@@H](O)C#Cc1ccc2c(c1)O[C@@H](CN(C)Cc1ccc(-c3ccccc3)cc1)[C@@H](C)CN([C@@H](C)CO)S2(=O)=O | 2940 nM and 3900 nM
16 | COc1cccc(-c2ccc(CN(C)C[C@@H]3Oc4cc(C#C[C@@H](C)O)ccc4S(=O)(=O)N([C@@H](C)CO)C[C@@H]3C)cc2)c1 | 2770 nM
17 | C[C@H]1CN([C@@H](C)CO)S(=O)(=O)c2ccc(C#CC(C)(C)O)cc2O[C@H]1CN(C)Cc1ccc(-c2ccccc2)cc1 | > 20000 nM (inactive)
18 | Cc1cccc(-c2ccc(CN(C)C[C@@H]3Oc4cc(C#C[C@@H](C)O)ccc4S(=O)(=O)N([C@@H](C)CO)C[C@@H]3C)cc2)c1 | 1740 nM
19 | COc1ccc(-c2ccc3c(c2)O[C@@H](CN(C)Cc2ccc(-c4ccccc4)cc2)[C@@H](C)CN([C@@H](C)CO)S3(=O)=O)cc1 | > 20000 nM (inactive)
20 | C[C@@H](O)C#Cc1ccc2c(c1)O[C@@H](CN(C)Cc1ccc(-c3ccccc3Cl)cc1)[C@@H](C)CN([C@@H](C)CO)S2(=O)=O | 1340 nM

Tested on: not listed separately
Assay: as above
Conditions: Vaccinia virus infected cells, plate reader read-out; at 1 µM (top of the series)

Row | SMILES | activity change, negative = inhibition
21 | C[C@H](O)C#Cc1ccc2c(c1)O[C@@H](CN(C)Cc1ccc(-c3ccccc3)cc1)[C@H](C)CN([C@@H](C)CO)S2(=O)=O | 6% (inactive)
22 | CO[C@H]1CN(C)C(=O)c2ccc(NC(=O)c3ccc(F)cc3)cc2OC[C@H](C)N(C(=O)c2ccc(F)cc2)C[C@@H]1C | 0% (inactive)

Same assay, conditions: Vaccinia virus infected cells, plate reader read-out; at 10 µM (top of the series)

Row | SMILES | activity change, negative = inhibition
23 | C[C@H]1CN([C@@H](C)CO)S(=O)(=O)c2ccc(Br)cc2O[C@H]1CN(C)Cc1ccc(-c2ccccc2)cc1 | -19% (inactive)
24 | C[C@@H](O)C#Cc1ccc2c(c1)O[C@@H](CN(C)S(=O)(=O)c1ccc(-c3ccccc3)cc1)[C@@H](C)CN([C@@H](C)CO)S2(=O)=O | -14% (inactive)
25 | C[C@@H](O)C#Cc1ccc2c(c1)O[C@@H](CN(C)C(=O)c1ccc(-c3ccccc3)cc1)[C@@H](C)CN([C@@H](C)CO)S2(=O)=O | -22% (inactive)
26 | C[C@H](O)C#Cc1ccc2c(c1)O[C@@H](CN(C)Cc1ccc(-c3ccccc3)cc1)[C@@H](C)CN([C@@H](C)CO)S2(=O)=O | -4% (inactive)
27 | CNC[C@@H]1Oc2cc(Br)ccc2S(=O)(=O)N([C@@H](C)CO)C[C@@H]1C | -1% (inactive)
28 | C[C@H](O)C#Cc1ccc2c(c1)O[C@@H](CN(C)Cc1ccc(-c3ccccc3)cc1)[C@@H](C)CN([C@H](C)CO)S2(=O)=O | 1% (inactive)
